The experiment has as its target thyroid hormone receptor β (TRβ) (Homo sapiens, UniProt P10828). Put plainly: biochemical.

The results in this text go back to article PMC2701686 (Analytical biochemistry, 2008).

Sequence of thyroid hormone receptor β (TRβ) (P10828 82-456): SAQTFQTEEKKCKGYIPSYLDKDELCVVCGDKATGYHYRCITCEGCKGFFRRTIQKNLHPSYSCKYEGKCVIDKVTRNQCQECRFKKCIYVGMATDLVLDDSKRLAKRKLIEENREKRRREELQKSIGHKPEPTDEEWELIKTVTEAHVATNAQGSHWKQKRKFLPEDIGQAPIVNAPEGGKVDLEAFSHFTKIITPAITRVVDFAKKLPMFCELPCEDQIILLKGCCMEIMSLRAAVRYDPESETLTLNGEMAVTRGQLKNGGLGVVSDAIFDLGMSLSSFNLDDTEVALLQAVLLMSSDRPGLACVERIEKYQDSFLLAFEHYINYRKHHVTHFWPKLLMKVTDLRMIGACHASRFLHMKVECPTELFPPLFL
Sequence of thyroid hormone receptor β (TRβ) (P19793 whole entry partner): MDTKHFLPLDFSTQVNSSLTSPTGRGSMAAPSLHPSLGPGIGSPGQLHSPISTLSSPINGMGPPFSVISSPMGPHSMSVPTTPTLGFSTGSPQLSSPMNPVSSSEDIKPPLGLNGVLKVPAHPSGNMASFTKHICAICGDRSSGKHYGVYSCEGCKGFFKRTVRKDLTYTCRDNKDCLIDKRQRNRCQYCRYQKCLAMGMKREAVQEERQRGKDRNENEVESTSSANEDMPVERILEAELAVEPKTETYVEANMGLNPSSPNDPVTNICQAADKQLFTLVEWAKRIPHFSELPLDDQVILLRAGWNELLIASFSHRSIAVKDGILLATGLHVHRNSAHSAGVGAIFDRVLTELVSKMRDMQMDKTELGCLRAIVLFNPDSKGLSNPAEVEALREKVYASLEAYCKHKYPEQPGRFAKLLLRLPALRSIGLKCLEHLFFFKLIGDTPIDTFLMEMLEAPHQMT
Sequence of thyroid hormone receptor β (TRβ) (Q60974 2057-2453 partner): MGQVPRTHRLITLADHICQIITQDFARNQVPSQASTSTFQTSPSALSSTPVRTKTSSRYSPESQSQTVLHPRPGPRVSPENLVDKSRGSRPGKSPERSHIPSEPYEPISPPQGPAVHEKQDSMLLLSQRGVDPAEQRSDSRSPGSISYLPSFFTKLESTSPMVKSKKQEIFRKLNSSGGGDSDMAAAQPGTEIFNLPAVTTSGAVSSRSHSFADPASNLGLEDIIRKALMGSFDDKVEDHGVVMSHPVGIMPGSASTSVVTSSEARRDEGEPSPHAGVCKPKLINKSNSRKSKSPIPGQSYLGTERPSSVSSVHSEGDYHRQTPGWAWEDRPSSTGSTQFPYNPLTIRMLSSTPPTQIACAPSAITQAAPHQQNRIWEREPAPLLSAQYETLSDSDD
Sequence of thyroid hormone receptor β (TRβ) (Q9Y6Q9 627-829 partner): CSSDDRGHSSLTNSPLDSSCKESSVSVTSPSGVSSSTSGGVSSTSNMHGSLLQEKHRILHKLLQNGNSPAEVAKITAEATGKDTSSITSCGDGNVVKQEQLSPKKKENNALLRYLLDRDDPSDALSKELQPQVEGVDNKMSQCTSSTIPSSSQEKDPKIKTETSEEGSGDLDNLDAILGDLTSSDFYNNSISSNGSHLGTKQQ

What is called IC50 is the concentration that gives 50% inhibition. High values mean weaker potency, low ones greater potency. In turn, `Cc1cc(OCC(=O)O)cc(C)c1Cc1cc(C#Cc2ccc([N+](=O)[O-])cc2)c(O)c(C(C)C)c1` [NH-3, {4-[4-hydroxy-3’-isopropyl-5-(4-nitrophenylethynyl)benzyl]-3,5-dimethylphenoxy}acetic acid] yielded an IC50 of 1090 ± 80 nM.
